Values of other authors in patent US4127536A, “Novel tricosapeptides, intermediates therefor and pharmaceutical compositions and methods employing said tricosapeptides” (priority 1977, dated 1978).

Columns and labels:
[1] = tested on: partially purified brain opiate receptor sites; settings: natural peptide
rat = settings: injected directly into the brain of the rat

In the case of “H-Tyr-Gly-Gly-Phe-Met-OH [methionine enkephalin]”, the “binding to partially purified brain opiate receptor sites” value [1] is listed as “binds stereo-specifically” and the analgesic activity (rat) is listed as “only weak analgesic agent of short duration”.
